Among the data in ChEMBL document CHEMBL5528028, “Discovery of benzopyridone cyanoacetates as new type of potential broad-spectrum antibacterial candidates” (Eur J Med Chem, 2024) are MIC values, retold here.

Converted amounts (≈) assume the structure as drawn.

Common to all, as to format: functional
Assay [1] has as its system Escherichia coli. The experiment in a line: Antibacterial activity against Escherichia coli assessed growth inhibition by micro broth dilution method. A general note: Dilution methods test growth across graded concentrations, often in twofold steps.
Assay [2] has as its system Escherichia coli. The experiment in a line: Antibacterial activity against Escherichia coli ATCC 25922 assessed growth inhibition by micro broth dilution method.
Another assay has as its system Klebsiella pneumoniae. Briefly: Antibacterial activity against Klebsiella pneumonia assessed growth inhibition by micro broth dilution method.
Assay [3] has as its system Pseudomonas aeruginosa. The experiment in a line: Antibacterial activity against Pseudomonas aeruginosa ATCC 27853 assessed growth inhibition by micro broth dilution method.
The subject of a further assay is Enterococcus faecalis. Briefly: Antibacterial activity against Enterococcus faecalis assessed growth inhibition by micro broth dilution method.
The subject of assay [4] is Staphylococcus aureus. Briefly: Antibacterial activity against Staphylococcus aureus ATCC 29213 assessed growth inhibition by micro broth dilution method.
Assay [5] relates to Pseudomonas aeruginosa. The experiment in a line: Antibacterial activity against Pseudomonas aeruginosa assessed growth inhibition by micro broth dilution method.
Assay [6] relates to Staphylococcus aureus. The experiment in a line: Antibacterial activity against Staphylococcus aureus ATCC 25923 assessed growth inhibition by micro broth dilution method.
For assay [7], the system named is Staphylococcus aureus. The experiment in a line: Antibacterial activity against Staphylococcus aureus assessed growth inhibition by micro broth dilution method.
In the next assay the test system is Acinetobacter baumannii. Briefly: Antibacterial activity against Acinetobacter baumannii assessed growth inhibition by micro broth dilution method.
The subject of assay [8] is Staphylococcus aureus. The experiment in a line: Antibacterial activity against methicillin-resistant Staphylococcus aureus assessed growth inhibition by micro broth dilution method.

For the molecule `CCOC(=O)c1cn(CC(N)=O)c2cc([C-](C#N)C(=O)OCC)c(F)cc2c1=O.[Na+]` (centres undefined), the MIC with Escherichia coli [1], against Escherichia coli [2], against Klebsiella pneumoniae, in the assay with Pseudomonas aeruginosa [3], against Enterococcus faecalis and against Staphylococcus aureus [4] was 256 µg/mL each time. For the same molecule, the MIC against Pseudomonas aeruginosa [5], with Staphylococcus aureus [6], against Staphylococcus aureus [7], with Acinetobacter baumannii and against Staphylococcus aureus [8] was 256 µg/mL throughout.
Consider `CCOC(=O)c1cn(Cc2ccccc2Cl)c2cc([C-](C#N)C(=O)OCC)c(F)cc2c1=O.[Na+]` (centres undefined), for which the MIC against Escherichia coli [1] worked out at 0.25 µg/mL; against Escherichia coli [2], 2 µg/mL; in the assay on Klebsiella pneumoniae it was 4 µg/mL; in the assay with Pseudomonas aeruginosa [3], 2 µg/mL; in the assay on Enterococcus faecalis it was 1 µg/mL; with Staphylococcus aureus [4] it was 2 µg/mL. In addition, the MIC against Pseudomonas aeruginosa [5] amounted to 16 µg/mL; against Staphylococcus aureus [6], 0.5 µg/mL; in the assay with Staphylococcus aureus [7] it was 256 µg/mL; against Acinetobacter baumannii, 32 µg/mL; against Staphylococcus aureus [8], 64 µg/mL.
On to `CCOC(=O)c1cn(Cc2cnc(Cl)s2)c2cc(F)c(F)cc2c1=O`, for which the minimum inhibitory concentration (MIC) is 8 µg/mL (≈ 20.8 µM) in the assay with Escherichia coli [1]; 32 µg/mL (≈ 83.2 µM) against Escherichia coli [2]; 64 µg/mL (≈ 166 µM) in the assay with Klebsiella pneumoniae; 16 µg/mL (≈ 41.6 µM) in the assay on Pseudomonas aeruginosa [3]; 32 µg/mL (≈ 83.2 µM) in the assay with Enterococcus faecalis; 32 µg/mL (≈ 83.2 µM) in the assay on Staphylococcus aureus [4]. The MIC was determined as 64 µg/mL (≈ 166 µM) against Pseudomonas aeruginosa [5]; 4 µg/mL (≈ 10.4 µM) with Staphylococcus aureus [6]; 256 µg/mL (≈ 665 µM) in the assay with Staphylococcus aureus [7]; 32 µg/mL (≈ 83.2 µM) against Acinetobacter baumannii; 32 µg/mL (≈ 83.2 µM) in the assay with Staphylococcus aureus [8].
In the case of `CCCCn1cc(C(=O)OCC)c(=O)c2cc(F)c(F)cc21`, the MIC in the assay on Escherichia coli [1] came out at 16 µg/mL (≈ 51.7 µM); in the assay on Escherichia coli [2] it was 128 µg/mL (≈ 414 µM); in the assay on Klebsiella pneumoniae, 64 µg/mL (≈ 207 µM); in the assay with Pseudomonas aeruginosa [3], 256 µg/mL (≈ 828 µM); in the assay with Enterococcus faecalis, 64 µg/mL (≈ 207 µM); in the assay with Staphylococcus aureus [4], 128 µg/mL (≈ 414 µM). Also, the MIC with Pseudomonas aeruginosa [5] came to 64 µg/mL (≈ 207 µM); with Staphylococcus aureus [6], 128 µg/mL (≈ 414 µM); against Staphylococcus aureus [7] it was 32 µg/mL (≈ 103 µM); in the assay with Acinetobacter baumannii it was 128 µg/mL (≈ 414 µM); with Staphylococcus aureus [8], 256 µg/mL (≈ 828 µM).
Regarding `CCOC(=O)c1cn(C)c2cc([C-](C#N)C(=O)OCC)c(F)cc2c1=O.[Na+]` (centres undefined), the MIC against Escherichia coli [1] was 32 µg/mL; in the assay with Escherichia coli [2], 16 µg/mL; against Klebsiella pneumoniae, 32 µg/mL; with Pseudomonas aeruginosa [3], 32 µg/mL; against Enterococcus faecalis, 32 µg/mL; in the assay with Staphylococcus aureus [4], 64 µg/mL. Moreover, the minimal inhibitory concentration (MIC) was 32 µg/mL with Pseudomonas aeruginosa [5]; 1 µg/mL against Staphylococcus aureus [6]; 128 µg/mL in the assay with Staphylococcus aureus [7]; 32 µg/mL with Acinetobacter baumannii; 64 µg/mL with Staphylococcus aureus [8].
On to `CCOC(=O)c1cn(CC2CCCCC2)c2cc(C(C#N)C(=O)OCC)c(F)cc2c1=O` (centres undefined), for which the minimal inhibitory concentration (MIC) came out at 4 µg/mL (≈ 9.04 µM) in the assay with Escherichia coli [1]; 0.5 µg/mL (≈ 1.13 µM) against Escherichia coli [2]; 4 µg/mL (≈ 9.04 µM) in the assay with Klebsiella pneumoniae; 1 µg/mL (≈ 2.26 µM) with Pseudomonas aeruginosa [3]; 16 µg/mL (≈ 36.2 µM) against Enterococcus faecalis; 4 µg/mL (≈ 9.04 µM) against Staphylococcus aureus [4]. The MIC was determined as 1 µg/mL (≈ 2.26 µM) in the assay on Pseudomonas aeruginosa [5]; 1 µg/mL (≈ 2.26 µM) in the assay on Staphylococcus aureus [6]; 64 µg/mL (≈ 145 µM) in the assay with Staphylococcus aureus [7]; 4 µg/mL (≈ 9.04 µM) against Acinetobacter baumannii; 64 µg/mL (≈ 145 µM) in the assay on Staphylococcus aureus [8].
As to `CCOC(=O)c1cn(CC=C(C)C)c2cc([C-](C#N)C(=O)OCC)c(F)cc2c1=O.[Na+]` (centres undefined), the MIC was 256 µg/mL against Escherichia coli [1]; 8 µg/mL in the assay with Escherichia coli [2]; 8 µg/mL against Klebsiella pneumoniae; 8 µg/mL against Pseudomonas aeruginosa [3]; 256 µg/mL in the assay with Enterococcus faecalis; 8 µg/mL against Staphylococcus aureus [4]. Besides, the MIC in the assay with Pseudomonas aeruginosa [5] is 256 µg/mL; against Staphylococcus aureus [6], 0.5 µg/mL; against Staphylococcus aureus [7], 256 µg/mL; with Acinetobacter baumannii, 256 µg/mL; in the assay on Staphylococcus aureus [8] it was 256 µg/mL.
For the molecule `CCOC(=O)c1cn(CC(=O)N2CCN(C(=O)OC(C)(C)C)CC2)c2cc([C-](C#N)C(=O)OCC)c(F)cc2c1=O.[Na+]` (centres undefined), the MIC against Escherichia coli [1] came to 16 µg/mL; against Escherichia coli [2] it was 16 µg/mL; with Klebsiella pneumoniae, 128 µg/mL; against Pseudomonas aeruginosa [3], 4 µg/mL; in the assay on Enterococcus faecalis, 64 µg/mL; with Staphylococcus aureus [4] it was 32 µg/mL. Also, the minimal inhibitory concentration (MIC) was 64 µg/mL against Pseudomonas aeruginosa [5]; 16 µg/mL against Staphylococcus aureus [6]; 256 µg/mL in the assay on Staphylococcus aureus [7]; 32 µg/mL with Acinetobacter baumannii; 32 µg/mL against Staphylococcus aureus [8].
`CCOC(=O)c1cn(CC(N)=O)c2cc(F)c(F)cc2c1=O`: the MIC against Escherichia coli [1] turned out to be 8 µg/mL (≈ 25.8 µM); against Escherichia coli [2] it was 32 µg/mL (≈ 103 µM); in the assay on Klebsiella pneumoniae, 256 µg/mL (≈ 825 µM); against Pseudomonas aeruginosa [3], 64 µg/mL (≈ 206 µM); with Enterococcus faecalis, 256 µg/mL (≈ 825 µM); against Staphylococcus aureus [4] it was 256 µg/mL (≈ 825 µM). The minimum inhibitory concentration (MIC) against Pseudomonas aeruginosa [5] was determined as 64 µg/mL (≈ 206 µM); against Staphylococcus aureus [6], 256 µg/mL (≈ 825 µM); in the assay with Staphylococcus aureus [7], 128 µg/mL (≈ 413 µM); in the assay with Acinetobacter baumannii it was 16 µg/mL (≈ 51.6 µM); in the assay on Staphylococcus aureus [8], 256 µg/mL (≈ 825 µM).
For the molecule `CCOC(=O)c1cn(Cc2ccc(F)cc2F)c2cc(F)c(F)cc2c1=O`, the MIC was 16 µg/mL (≈ 42.2 µM) against Escherichia coli [1]; 128 µg/mL (≈ 337 µM) against Escherichia coli [2]; 0.25 µg/mL (≈ 0.659 µM) against Klebsiella pneumoniae; 256 µg/mL (≈ 675 µM) in the assay with Pseudomonas aeruginosa [3]; 256 µg/mL (≈ 675 µM) in the assay with Enterococcus faecalis; 256 µg/mL (≈ 675 µM) in the assay on Staphylococcus aureus [4]. For the same molecule, the MIC with Pseudomonas aeruginosa [5] amounted to 64 µg/mL (≈ 169 µM); against Staphylococcus aureus [6], 256 µg/mL (≈ 675 µM); against Staphylococcus aureus [7], 256 µg/mL (≈ 675 µM); in the assay with Acinetobacter baumannii, 16 µg/mL (≈ 42.2 µM); in the assay on Staphylococcus aureus [8], 256 µg/mL (≈ 675 µM).
On to `CCOC(=O)c1cn(C2CC2)c2cc([C-](C#N)C(=O)OCC)c(F)cc2c1=O.[Na+]` (centres undefined), for which the MIC was determined as 16 µg/mL against Escherichia coli [1]; 32 µg/mL against Escherichia coli [2]; 16 µg/mL against Klebsiella pneumoniae; 16 µg/mL against Pseudomonas aeruginosa [3]; 16 µg/mL against Enterococcus faecalis; 32 µg/mL against Staphylococcus aureus [4]. Moreover, the MIC in the assay with Pseudomonas aeruginosa [5] was found to be 32 µg/mL; in the assay on Staphylococcus aureus [6] it was 8 µg/mL; with Staphylococcus aureus [7] it was 32 µg/mL; against Acinetobacter baumannii it was 32 µg/mL; with Staphylococcus aureus [8] it was 16 µg/mL.
As to `CCCCCCCCCCCCn1cc(C(=O)OCC)c(=O)c2cc(F)c([C-](C#N)C(=O)OCC)cc21.[Na+]` (centres undefined), the MIC against Escherichia coli [1] is 1 µg/mL; in the assay with Escherichia coli [2] it was 0.5 µg/mL; against Klebsiella pneumoniae it was 1 µg/mL; with Pseudomonas aeruginosa [3], 0.25 µg/mL; against Enterococcus faecalis, 8 µg/mL; in the assay with Staphylococcus aureus [4], 1 µg/mL. The MIC in the assay on Pseudomonas aeruginosa [5] was 4 µg/mL; with Staphylococcus aureus [6], 1 µg/mL; in the assay with Staphylococcus aureus [7] it was 32 µg/mL; in the assay with Acinetobacter baumannii it was 0.25 µg/mL; against Staphylococcus aureus [8], 8 µg/mL.
In the case of `CCCCCCn1cc(C(=O)OCC)c(=O)c2cc(F)c([C-](C#N)C(=O)OCC)cc21.[Na+]` (centres undefined), the MIC in the assay on Escherichia coli [1] was found to be 0.5 µg/mL; against Escherichia coli [2], 1 µg/mL; in the assay on Klebsiella pneumoniae, 1 µg/mL; in the assay with Pseudomonas aeruginosa [3], 1 µg/mL; in the assay with Enterococcus faecalis, 16 µg/mL; with Staphylococcus aureus [4] it was 1 µg/mL. Moreover, the MIC against Pseudomonas aeruginosa [5] amounted to 0.5 µg/mL; against Staphylococcus aureus [6] it was 0.5 µg/mL; in the assay on Staphylococcus aureus [7], 16 µg/mL; against Acinetobacter baumannii, 0.5 µg/mL; against Staphylococcus aureus [8] it was 32 µg/mL.
Consider `CCCCn1cc(C(=O)OCC)c(=O)c2cc(F)c([C-](C#N)C(=O)OCC)cc21.[Na+]` (centres undefined), for which the minimum inhibitory concentration (MIC) against Escherichia coli [1] came to 8 µg/mL; in the assay with Escherichia coli [2] it was 16 µg/mL; with Klebsiella pneumoniae it was 16 µg/mL; against Pseudomonas aeruginosa [3], 8 µg/mL; against Enterococcus faecalis, 16 µg/mL; against Staphylococcus aureus [4], 8 µg/mL. The minimal inhibitory concentration (MIC) amounted to 8 µg/mL against Pseudomonas aeruginosa [5]; 2 µg/mL in the assay with Staphylococcus aureus [6]; 64 µg/mL against Staphylococcus aureus [7]; 16 µg/mL in the assay with Acinetobacter baumannii; 32 µg/mL against Staphylococcus aureus [8].

By MIC is commonly meant the lowest concentration found to suppress growth. A low value points to inhibition by little substance.
